pKd: −log10 of the molar value. “And” between values parts separate entries of the source, which are not always exact repeats. Equal entries are not always repeated.
Assays:
[1] = target: T1, Hb (Homo sapiens, UniProt P69905); test: Drug partitioning studies, fixed and unfixed Hb adducts in non-sickling AA blood; type: cell-based; set-up: Hemoglobin modification, studies using non-sickling AA blood; from tissue; host or cells: non-sickling (AA) human blood, red blood cells; settings: 2 mM; for Fixed Adducts (%) / Unfixed Adduct (%): 6 biological replicates; for Partitioning Ratio (%): fixed relative to unfixed adducts
Experimental: RBC partitioning studies were conducted both for SS RBCs following sickling studies above, or as separate independent studies with non-sickle blood. Briefly, aliquots of blood samples, which had been incubated with test molecules, were lysed either in deionized water (un-fixed), or in water containing 50 mM sodium borohydride (fixed). Samples were subjected to cation exchange HPLC analyses, as described above. Modified […] (Hb adducts) was determined as a proportion of total Hb in each sample, and partitioning ratio was determined as the relative fraction of Hb modification of fixed samples compared to corresponding non-fixed samples. The partitioning ratio is the relative fraction of Hb that was modified intracellularly by molecules that permeated the RBC membrane, as compared to unfixed adducts which reflect Hb binding without RBC membrane permeation.
Target sequence in this assay (P69905 2-142 limits assumed): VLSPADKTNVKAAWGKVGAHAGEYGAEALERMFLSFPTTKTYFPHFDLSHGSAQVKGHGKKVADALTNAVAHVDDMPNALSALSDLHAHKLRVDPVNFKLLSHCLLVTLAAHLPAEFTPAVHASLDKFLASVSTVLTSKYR
Target sequence in this assay (P68871 2-147 partner limits assumed): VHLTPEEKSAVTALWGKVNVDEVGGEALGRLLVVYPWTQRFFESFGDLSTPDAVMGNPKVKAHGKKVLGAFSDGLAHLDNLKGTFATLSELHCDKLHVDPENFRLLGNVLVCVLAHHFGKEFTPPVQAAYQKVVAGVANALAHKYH

[2] = target: T1, Hb; test: Hb modification (drug-adduct formation) in SS blood suspensions by cation-exchange HPLC; type: binding; set-up: Blood suspensions from subjects with homozygous SCD; from tissue; host or cells: blood suspensions (20% hematocrit) from donors with homozygous SCD; lysates of the treated red cells; settings: 2 mM, 4 biological replicates
Experimental: All compounds (Comp 1-13) and comparator molecules (VZHE-039, PP-14, INN-310, and Voxelotor) were evaluated following established procedures. Blood samples from individual donors with homozygous SCD (obtained with informed consent) were diluted using Hemox buffer solution with the addition of glucose (10 mM) and BSA (0.2%) to adjust hematocrit of the blood suspensions to 20%, which standardizes the procedure to normalize the ratio of RBCs to drug, for assay consistency and reproducibility. Briefly, blood suspensions were incubated under room air in the presence of various concentrations of test compounds (0-2 mM) at 37° C. for 1 hour in 96-well round bottom plates. Subsequently, the suspensions were incubated with a hypoxic gas mixture (2.5% Oxygen gas/balance Nitrogen gas) at 37° C. for up to 2 hours prior to fixation with 2% glutaraldehyde solution without exposure to air. The fixated blood aliquots were evaluated by microscopic morphological analysis (image analysis on Image J software) to identify the proportion of sickled and non-sickled RBCs, and sickle inhibition calculated based on the % change from negative control (DMSO).
The residual samples were then washed in phosphate-buffered saline, and hemolyzed in hypotonic lysis buffer, with or without sodium borohydride (50 mM). Aliquots obtained from the lysates with or without sodium borohydride (to reduce Schiff base adducts) were also assessed for level of Hb modification (drug-adduct formation) by cation-exchange HPLC (Hitachi D-7000 Series, Hitachi Instruments, Inc., San Jose, CA) with a weak cation-exchange column (Poly CAT A: 50 mm×4.6 mm, Poly LC, Inc., Columbia, MD). Hemoglobin isotype peaks are eluted with a linear gradient of phase B from 0% to 80% at A410 nm (Mobile Phase A: 40 mM Bis-Tris, 2 mM KCN, pH 6.9; Phase B: 40 mM Bis-Tris, 2 mM KCN, 0.2 M sodium chloride, pH 6.55). Clarified lysate from normal human adult […] (Hb A), as well as commercial standards containing approximately equal amounts of Hb F, A, S and C (Helena Laboratories, Beaumont, TX), were utilized as reference isotypes. Reduced samples were used to assess “fixed adduct” formation (dependent on RBC membrane permeability), whereas non-reduced samples assessed drug-adduct formation independent of drug permeability.
Target sequence in this assay (P69905 2-142): as the sequence (P69905 2-142 limits assumed) above
Target sequence in this assay (P68871 with tags, fused parts or gaps E7V partner): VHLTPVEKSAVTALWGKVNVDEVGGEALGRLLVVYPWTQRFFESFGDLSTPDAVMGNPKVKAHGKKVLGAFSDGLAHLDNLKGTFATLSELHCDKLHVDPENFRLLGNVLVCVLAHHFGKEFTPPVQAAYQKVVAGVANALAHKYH

[3] = 14-day repeat-dose safety (clinical observations, histopathology) in rats; type: in vivo, SD rats; settings: for safety in non-clinical toxicology: above anticipated therapeutic drug levels; for clinical or histopathologic changes after 14 days of exposure: oral 100 mg/kg once daily for 14 days, rats
Experimental: (§1) Repeat doses of each compound were administered once daily as oral suspensions by gavage in 0.5% carboxy methylcellulose for 14 days at 100 mg/kg. Whole blood was collected at 7 time-points for up to 24 hours during the final dosing interval on Day 14. Clinical observations, body weights, and food consumption were recorded throughout the 14 day study. Clinical chemistry and hematologic parameters were assessed, and histopathology was performed on organs after 14 days of exposure to study drug.
(§2) Repeat oral doses of each compound were administered by oral gavage for 14 days to male and female SD rats (n=3). […] Steady state exposures for the final dosing interval on Day 14 were similar to total compound exposure from single-dose PK.

[4] = target: T1, Hb; test: Affinity (KD) for Hb; type: binding
Target sequence in this assay (P69905 2-142 limits assumed): as the sequence (P69905 2-142 limits assumed) above
Target sequence in this assay (P68871 2-147 partner limits assumed): as the sequence (P68871 2-147 partner limits assumed) above

[5] = test system: RBCs from donors with homozygous SCD; test: Oxygen-independent sickle inhibition in SS blood suspensions under anoxia (100% nitrogen); type: cell-based, human; settings: anoxia
Experimental: To establish oxygen-independent sickle inhibition, the incubation chamber was subsequently opened and exposed to room air for 15 minutes to ensure complete re-oxygenation and reversal of the sickled cells to normal round cells. Reversal was confirmed by microscopy. The incubation chamber was then closed, and the assay was repeated with incubation in 100% nitrogen gas for 1 hour (for screening), or up to 2.5 h (for time-course studies), with collection and fixation of blood aliquots at defined intervals. Aliquot samples were again subjected to microscopic morphological analysis of bright field images to identify the proportion of sickled and non-sickled cells, and sickle inhibition calculated.

[6] = 14-day repeat-dose oral pharmacokinetics in rats; type: in vivo; settings: SD, rat, whole blood, repeat oral doses 100 mg/kg for 14 days
Experimental: as §1, §2

[7] = target: T1, Hb; test: Dose-dependent P50 shift in non-sickling human blood; type: cell-based; set-up: Hemoglobin modification, studies using non-sickling AA blood; from tissue; host or cells: non-sickling (AA) human blood, red blood cells; settings: compared to Voxelotor at equivalent drug-Hb occupancy levels
Experimental: Non-sickling human blood was incubated with test compounds at 0.25-2 mM concentrations at 37° C. for 1 hour in 96-well round bottom plates. At conclusion, RBCs were washed once with PBS, followed by lysis with deionized water. Approximately 100 μl aliquots of individual lysates were added to 3 mL of 0.1M potassium phosphate buffer, pH 7.0 in a cuvette and subjected to hemoximetry analysis using a Hemox™ Analyzer (TCS Scientific Corp.) as previously described. Change in p50 values (Δp50) was calculated by subtracting the p50 values of treated samples from the value of the control sample and expressing the difference as a percentage of control p50 values.
Target sequence in this assay (P69905 2-142 limits assumed): as the sequence (P69905 2-142 limits assumed) above
Target sequence in this assay (P68871 2-147 partner limits assumed): as the sequence (P68871 2-147 partner limits assumed) above

[8] = Single-dose oral pharmacokinetics in rats; type: in vivo, Sprague Dawley rats; settings: Sprague Dawley, rat; single oral dose 100 mg/kg, male rats, whole blood
Experimental: Single doses of each compound were administered as oral suspensions by gavage in 0.5% carboxy methylcellulose at 100 mg/kg. Whole blood levels were collected for at least 72 hours after dose administration. Bioanalyses were performed with liquid chromatography-tandem mass spectrometry […].
Single-dose pharmacokinetics (PK) in male Sprague Dawley (SD) rats (n=4) were assessed for each compound, and the maximum or peak whole blood concentration and area under the curve are shown in Table 5.

[9] = patients with SCD, most patients; cited from earlier work
[10] = female rats, read-out: AUC0-∞ (female)
[11] = female rats, read-out: Cmax (female)
[12] = male rats, read-out: AUC0-∞ (male)
[13] = male rats, read-out: Cmax (male)

Compound: O=Cc1c(O)cccc1OCc1cccnc1 [Comp 1, 2-hydroxy-6-(pyridin-3-ylmethoxy)benzaldehyde]
- Fixed Adducts (%) [1]: 96.0 ± 1.9%
- Unfixed Adduct (%) [1]: 97.4 ± 2.8%
- Partitioning Ratio (%) [1]: 98.6 ± 2.8%
- Hb Modification (%) [2]: 95.8 ± 6.2%
- safety in non-clinical toxicology [3]: without hepatotoxicity
- clinical or histopathologic changes after 14 days of exposure [3]: No clinical or histopathologic changes
- pKd [4]: 4.22
- polymer destabilizing effect / sickle inhibition in anoxia (in words) [5]: most potent and sustained polymer destabilizing effects observed to date
- AUC(0-inf) [6, 10]: 1.9e+06 ng·h/mL and 8080 µM·h
- Cmax [6, 11]: 122000 ng/mL and 534 µM
- AUC(0-inf) [6, 12]: 2.4e+06 ng·h/mL and 10500 µM·h
- Cmax [6, 13]: 161000 ng/mL and 703 µM
- change in p50 of Hb in human blood (in words) [7]: relatively weak changes in p50
- AUC(0-inf) [8]: 4e+06 ng·h/mL and 17400 µM·h
- Cmax [8]: 211000 ng/mL and 919 µM
- half-life [8]: 5 h

Compound: O=Cc1c(O)cccc1OCc1ccccn1 [Comp 2, 2-hydroxy-6-(pyridin-2-ylmethoxy)benzaldehyde]
- Fixed Adducts (%) [1]: 95.2 ± 2.3%
- Unfixed Adduct (%) [1]: 96.3 ± 2.6%
- Partitioning Ratio (%) [1]: 98.9 ± 2.9%
- Hb Modification (%) [2]: 95.5 ± 5.7%
- safety in non-clinical toxicology [3]: without hepatotoxicity
- clinical or histopathologic changes after 14 days of exposure [3]: No clinical or histopathologic changes
- polymer destabilizing effect / sickle inhibition in anoxia (in words) [5]: most potent and sustained polymer destabilizing effects observed to date
- AUC(0-inf) [6, 10]: 4.9e+06 ng·h/mL and 21500 µM·h
- Cmax [6, 11]: 254000 ng/mL and 1.11 mM
- AUC(0-inf) [6, 12]: 4.7e+06 ng·h/mL and 20400 µM·h
- Cmax [6, 13]: 254000 ng/mL and 1.11 mM
- change in p50 of Hb in human blood (in words) [7]: relatively weak changes in p50
- AUC(0-inf) [8]: 4.5e+06 ng·h/mL and 19800 µM·h
- Cmax [8]: 220000 ng/mL and 958 µM
- half-life [8]: 9.7 h

Compound: O=Cc1c(O)cccc1OCc1ncccc1F [Comp 5, 2-((3-fluoropyridin-2-yl)methoxy)-6-hydroxybenzaldehyde]
- Fixed Adducts (%) [1]: 93.1 ± 3.3%
- Unfixed Adduct (%) [1]: 95.8 ± 3.3%
- Partitioning Ratio (%) [1]: 97.2 ± 3.2%
- Hb Modification (%) [2]: 98.2 ± 2.5%
- safety in non-clinical toxicology [3]: without hepatotoxicity
- clinical or histopathologic changes after 14 days of exposure [3]: No clinical or histopathologic changes
- AUC(0-inf) [6, 10]: 5.1e+06 ng·h/mL and 20600 µM·h
- Cmax [6, 11]: 246000 ng/mL and 993 µM
- AUC(0-inf) [6, 12]: 4.2e+06 ng·h/mL and 17100 µM·h
- Cmax [6, 13]: 211000 ng/mL and 854 µM
- change in p50 of Hb in human blood (in words) [7]: relatively weak changes in p50
- AUC(0-inf) [8]: 3e+06 ng·h/mL and 12000 µM·h
- Cmax [8]: 86000 ng/mL and 348 µM
- half-life [8]: 8.8 h

Compound: O=Cc1c(O)cccc1OCc1cccc(CO)n1 [VZHE-039, reference compound]
- Fixed Adducts (%) [1]: 90.9 ± 3.4%
- Unfixed Adduct (%) [1]: 92.4 ± 5.6%
- Partitioning Ratio (%) [1]: 98.5 ± 4.3%
- Hb Modification (%) [2]: 90.7 ± 9.9%
- clinical or histopathologic changes after 14 days of exposure [3]: clinical and histopathologic changes in the liver, including hepatocyte necrosis
- pKd [4]: 4.00
- AUC(0-inf) [6, 10]: 3.2e+06 ng·h/mL and 12200 µM·h
- Cmax [6, 11]: 232000 ng/mL and 894 µM
- AUC(0-inf) [6, 12]: 3e+06 ng·h/mL and 11600 µM·h
- Cmax [6, 13]: 195000 ng/mL and 753 µM
- AUC(0-inf) [8]: 2.3e+06 ng·h/mL and 8780 µM·h
- Cmax [8]: 102000 ng/mL and 394 µM
- half-life [8]: 8.4 h

Compound: CC(C)n1nccc1-c1ncccc1COc1cccc(O)c1C=O [Voxelotor, reference compound]
- Fixed Adducts (%) [1]: 77.0 ± 3.8%
- Unfixed Adduct (%) [1]: 80.3 ± 6.3%
- Partitioning Ratio (%) [1]: 96.1 ± 3.7%
- increase in Hb concentrations [9]: at least 1 g/dl
- Hb Modification (%) [2]: 92.3 ± 6.8%
- polymer destabilizing effect / sickle inhibition in anoxia (in words) [5]: did not demonstrate any sickle inhibition in anoxic conditions
- AUC(0-inf) [6, 10]: 2.6e+06 ng·h/mL and 7620 µM·h
- Cmax [6, 11]: 185000 ng/mL and 548 µM
- AUC(0-inf) [6, 12]: 2.3e+06 ng·h/mL and 6760 µM·h
- Cmax [6, 13]: 142000 ng/mL and 422 µM

Reference: patent US20240109843A1, “BENZALDEHYDE COMPOUNDS WITH DIRECT POLYMER DESTABILIZING EFFECTS TO TREAT SICKLE CELL DISEASE” (VIRGINIA COMMONWEALTH UNIVERSITY, priority 2018, published 2024)
